Measured values from patent US8987258B2 (priority 2008, dated 2015).

Target: T1, SIRT1 (Homo sapiens, UniProt Q96EB6)
T1 sequence (Q96EB6 1-747): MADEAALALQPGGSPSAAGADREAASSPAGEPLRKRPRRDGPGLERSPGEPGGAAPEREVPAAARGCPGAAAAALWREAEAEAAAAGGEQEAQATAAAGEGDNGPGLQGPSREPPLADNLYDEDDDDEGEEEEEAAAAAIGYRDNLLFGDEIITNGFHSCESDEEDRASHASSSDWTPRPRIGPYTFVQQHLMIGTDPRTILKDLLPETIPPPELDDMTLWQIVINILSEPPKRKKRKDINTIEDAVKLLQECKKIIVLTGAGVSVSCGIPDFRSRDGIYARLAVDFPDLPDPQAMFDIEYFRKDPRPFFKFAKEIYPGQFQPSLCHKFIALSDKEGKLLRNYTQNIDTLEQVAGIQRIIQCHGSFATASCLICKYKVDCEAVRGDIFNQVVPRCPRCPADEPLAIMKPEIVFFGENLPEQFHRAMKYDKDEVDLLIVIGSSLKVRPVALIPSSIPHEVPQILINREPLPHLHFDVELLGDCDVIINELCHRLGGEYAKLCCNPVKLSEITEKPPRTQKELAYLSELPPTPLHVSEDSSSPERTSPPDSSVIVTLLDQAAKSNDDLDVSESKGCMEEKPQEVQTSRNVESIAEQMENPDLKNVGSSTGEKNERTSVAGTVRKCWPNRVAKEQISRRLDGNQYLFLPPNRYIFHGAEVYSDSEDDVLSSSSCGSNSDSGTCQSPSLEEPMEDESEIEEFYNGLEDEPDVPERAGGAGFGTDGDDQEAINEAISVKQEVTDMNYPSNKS
Assay: Mass spectrometry based SIRT1 deacetylase activation assay
Type: biochemical
Settings: for EC1.5 μM: 0.5 μM peptide substrate, 120 μM βNAD+, 10 nM SIRT1, 25 min, 25° C.; for Emax: 25 min, mass spectrometry assay, read-out: % Fold Act. (percent maximum fold activation)

Row | SMILES | EC1.5 μM | Emax
1 | O=C(Nc1cccc2c(=O)cc(-c3ccccc3Cl)oc12)c1cccc(N2CCOCC2)n1 [Compound 324] | A (EC1-5<1.0) | > 200%
2 | O=C(Nc1cccc2c(=O)cc(-c3ccccc3Cl)oc12)c1cccc(N2CCCC2)n1 [Compound 325] | A (EC1-5<1.0) | > 200%
3 | O=c1cc(-c2ccccc2C(F)(F)F)oc2c(NS(=O)(=O)c3cccnc3)cccc12 [Compound 326, N-(4-oxo-2-(2-(trifluoromethyl)phenyl)-4H-chromen-8-yl)pyridine-3-sulfonamide] | C (EC1.5>25 μM) | < 200%
4 | O=C(Nc1cccc2c(=O)cc(-c3ccccc3Cl)oc12)c1cccc(CN2CCCC2)n1 [Compound 327] | A (EC1-5<1.0) | > 200%
5 | O=C(Nc1cccc2c(=O)cc(-c3ccccc3C(F)(F)F)oc12)c1cccc(CN2CCOCC2)c1 [Compound 328] | B (EC1.5 1-25 μM) | > 200%
6 | O=C(Nc1cccc2c(=O)cc(-c3ccccc3Cl)oc12)c1cccc(N2CCCC2)c1 [Compound 329] | A (EC1-5<1.0) | > 200%
7 | O=C(Nc1cccc2c(=O)cc(-c3ccccc3Cl)oc12)c1cccc(CN2CCOCC2)c1 [Compound 330] | B (EC1.5 1-25 μM) | > 200%
8 | O=C(Nc1cccc2c(=O)cc(-c3ccccc3Cl)oc12)c1cccc(CN2CCOCC2)n1 [Compound 331] | A (EC1-5<1.0) | > 200%
9 | O=C(Nc1cccc2c(=O)cc(-c3ccccc3Cl)oc12)c1cccnc1OCC(O)CO (centres unmarked) [Compound 332] | B (EC1.5 1-25 μM) | > 200%
10 | O=C(Nc1cccc2c(=O)cc(-c3ccccc3Cl)oc12)c1cccc(CN2CCCC2)c1 [Compound 333] | B (EC1.5 1-25 μM) | > 200%
11 | O=C(Nc1cccc2c(=O)cc(-c3ccccc3Cl)oc12)c1cccc(OCC(O)CO)n1 (centres unmarked) [Compound 334] | A (EC1-5<1.0) | > 200%
12 | O=C(Nc1cccc2c(=O)cc(-c3ccccc3Cl)oc12)c1ncccn1 [Compound 335] | A (EC1-5<1.0) | > 200%
13 | O=C(Nc1cccc2c(=O)cc(-c3ccccc3Cl)oc12)c1cccc(N2CCOCC2)c1 [Compound 336] | B (EC1.5 1-25 μM) | > 200%
14 | Cn1nccc1C(=O)Nc1cccc2c(=O)cc(-c3ccccc3Cl)oc12 [Compound 337] | A (EC1-5<1.0) | > 200%
15 | O=C(Nc1cccc2c(=O)cc(-c3ccccc3C(F)F)oc12)c1cccc(OCC(O)CO)n1 (centres unmarked) [Compound 338] | A (EC1-5<1.0) | > 200%
16 | O=C(Nc1cccc2c(=O)cc(-c3ccccc3C(F)F)oc12)c1cccc(CN2CCOCC2)n1 [Compound 339] | A (EC1-5<1.0) | > 200%
